Test system: K562 human leukemia cells
Test: Leukemia K562 cell model in rats, survival after onset of circulating blast cells
Assay type: in vivo
Conditions: oral 30 mg/kg, treated for 7 to 14 days
Experimental: Male Waster rats (220-230 g) were used. Rats were maintained in cages with raised floors of wide wire mesh to prevent coprophagy. All animals were kept under uniform and controlled conditions of temperature and light/dark (12/12 h) cycles. The animals were fed with standard pelleted diet and water ad libitum and were left one week for acclimatization to animal room condition.
A known weight of total methanol extract and each of the isolated compounds (P1-P5) and the reference drug (TKIs) was dissolved in 3% v/v Tween 80 to produce solutions of 10% concentration.
In absence of LD50 values for the total methanol extract and each of the isolated compounds, an experimental dose of 100/mg kg was selected in this investigation to be given orally to rats. The reference drug, TKIs, were given orally at a certain dose (30 mg/kg). This dose was calculated by converting the therapeutic dose that used in human to rat's dose according to the table of Paget & Barnes (1964). […]
Rats were divided into 8 equal groups. […] After transplantation of the K562 cells, animals were monitored for the presence of circulating blast cells by blood sampling from the retro-orbital plexus according to Ratajczak et al. (1992) method.
After 5 weeks, leukemic cell transplantation in animals was monitored for the development of overt leukemia by retro-orbital plexus bleeding thrice weekly. […]

## Cc1ccc(NC(=O)c2ccc(CN3CCN(C)CC3)cc2)cc1Nc1nccc(-c2cccnc2)n1 [TKIs, 4-[(4-methyl-1-piperazinyl)methyl]-N-[4-methyl-3-[[4-(3-pyridinyl)-2-pyrimidinyl]aminophenyl]benzamide methanesulfonate]
  survival compared with control animals: not statistically different from the control animals

Source: US9345734B2, “Achillea fragrantissima extract, method for preparing Achillea fragrantissima extract and method for treating chronic myeloid leukemia” (King Saud University, priority 2013, dated 2016)
